Laboratory results as given in patent US10370343B2, “[6,6] Fused bicyclic HDAC8 inhibitors” (FORMA Therapeutics, Inc., priority 2015, dated 2019).

Target: T1, Recombinant N-terminal GST tag full-length human HDAC8 (Homo sapiens, UniProt Q9BY41)
T1 construct: Recombinant N-terminal GST tag full-length human HDAC8; purchased SignalChem H90-30G-1000; host or cells: baculovirus in Sf9 insect cells
T1 sequence (Q9BY41 1-377): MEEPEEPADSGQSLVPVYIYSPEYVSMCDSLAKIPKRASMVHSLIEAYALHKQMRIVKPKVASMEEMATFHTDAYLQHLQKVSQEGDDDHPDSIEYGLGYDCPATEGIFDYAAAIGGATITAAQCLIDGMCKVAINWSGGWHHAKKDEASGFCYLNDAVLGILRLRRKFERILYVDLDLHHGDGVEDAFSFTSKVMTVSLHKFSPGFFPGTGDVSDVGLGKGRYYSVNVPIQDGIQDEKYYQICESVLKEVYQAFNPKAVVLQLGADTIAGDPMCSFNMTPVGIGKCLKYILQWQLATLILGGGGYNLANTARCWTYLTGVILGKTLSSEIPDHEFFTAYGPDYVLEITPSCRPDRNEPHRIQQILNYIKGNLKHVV
Assay: HDAC8 probe binding assay, time resolved fluorescence (TRF) format
Settings: compounds grouped by IC50 range (Table 2)
Summary of the method: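 Probe-binding TRF assay using full-length N-GST human HDAC8 expressed in baculovirus-infected Sf9 cells, incubated 16 h at room temperature and read at 340 nm excitation, 485/535 nm emission. Percent inhibition was normalised to no-enzyme and DMSO controls. IC50 was obtained by 4-parameter logistic fit.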

Row | SMILES | IC50 [nM]
1 | O=C(NO)c1ccc2c(c1)N(Cc1cccc(Oc3ccc(Cl)cc3)c1)C(=O)CO2 [Compound I-226, 4-(3-(4-chlorophenoxy)benzyl)-N-hydroxy-3-oxo-3,4-dihydro-2H-benzo[b][1,4]oxazine-6-carboxamide] | ≤ 25
2 | O=C(NO)c1ccc2c(c1)N(Cc1cccc(Cl)c1F)C(=O)CO2 [Compound I-340, 4-(3-chloro-2-fluorobenzyl)-N-hydroxy-3-oxo-3,4-dihydro-2H-benzo[b][1,4]oxazine-6-carboxamide] | ≤ 25
3 | O=C(NO)c1ccc2c(c1)N(Cc1nc3cc(C(F)(F)F)ccc3o1)C(=O)CO2 [Compound I-234, N-hydroxy-3-oxo-4-((5-(trifluoromethyl)benzo[d]oxazol-2-yl)methyl)-3,4-dihydro-2H-benzo[b][1,4]oxazine-6-carboxamide] | ≤ 25
4 | COc1ccc(CN2C(=O)OCc3ccc(C(=O)NO)cc32)cc1 [Compound I-165, N-hydroxy-1-(4-methoxybenzyl)-2-oxo-2,4-dihydro-1H-benzo[d][1,3]oxazine-7-carboxamide] | ≤ 25
5 | CN(C)c1ccc(CN2C(=O)COc3ccc(C(=O)NO)cc32)cc1 [Compound I-361, 4-(4-(dimethylamino)benzyl)-N-hydroxy-3-oxo-3,4-dihydro-2H-benzo[b][1,4]oxazine-6-carboxamide] | ≤ 25
6 | O=C(NO)c1ccc2c(c1)N(Cc1ccc3cnccc3c1)C(=O)CO2 [Compound I-336, N-hydroxy-4-(isoquinolin-6-ylmethyl)-3-oxo-3,4-dihydro-2H-benzo[b][1,4]oxazine-6-carboxamide] | ≤ 25
7 | CC1(C)Oc2ccc(C(=O)NO)cc2N(Cc2ccc3ccccc3c2)C1=O [Compound I-317, N-hydroxy-2,2-dimethyl-4-(naphthalen-2-ylmethyl)-3-oxo-3,4-dihydro-2H-benzo[b][1,4]oxazine-6-carboxamide] | 25 to 100
8 | CN(C)S(=O)(=O)c1ccc(CN2C(=O)COc3ccc(C(=O)NO)cc32)cc1 [Compound I-189, 4-(4-(N,N-dimethylsulfamoyl)benzyl)-N-hydroxy-3-oxo-3,4-dihydro-2H-benzo[b][1,4]oxazine-6-carboxamide] | ≤ 25
9 | O=C(NO)c1ccc2c(c1)N(Cc1ccc(OC3CCC3)cc1)C(=O)CO2 [Compound I-331, 4-(4-cyclobutoxybenzyl)-N-hydroxy-3-oxo-3,4-dihydro-2H-benzo[b][1,4]oxazine-6-carboxamide] | ≤ 25
10 | Cc1nn(C)c2ncc(CN3C(=O)COc4ccc(C(=O)NO)cc43)cc12 [Compound I-325, 4-((1,3-dimethyl-1H-pyrazolo[3,4-b]pyridin-5-yl)methyl)-N-hydroxy-3-oxo-3,4-dihydro-2H-benzo[b][1,4]oxazine-6-carboxamide] | ≤ 25
11 | CC1(C)Oc2ccc(C(=O)NO)cc2N(Cc2ccc(C(F)(F)F)cc2)C1=O [Compound I-305, N-hydroxy-2,2-dimethyl-3-oxo-4-(4-(trifluoromethyl)benzyl)-3,4-dihydro-2H-benzo[b][1,4]oxazine-6-carboxamide] | 25 to 100
12 | O=C(NO)c1ccc2c(c1)N(Cc1ccc(F)c(Cl)c1)C(=O)CO2 [Compound I-351, 4-(3-chloro-4-fluorobenzyl)-N-hydroxy-3-oxo-3,4-dihydro-2H-benzo[b][1,4]oxazine-6-carboxamide] | ≤ 25
13 | COc1cc(CN2C(=O)COc3ccc(C(=O)NO)cc32)ccc1Cl [Compound I-350, 4-(4-chloro-3-methoxybenzyl)-N-hydroxy-3-oxo-3,4-dihydro-2H-benzo[b][1,4]oxazine-6-carboxamide] | ≤ 25
14 | CC(C)Oc1ccc(CN2C(=O)COc3ccc(C(=O)NO)cc32)cc1 [Compound I-330, N-hydroxy-4-(4-isopropoxybenzyl)-3-oxo-3,4-dihydro-2H-benzo[b][1,4]oxazine-6-carboxamide] | ≤ 25
15 | O=C(NO)c1ccc2c(c1)N(Cc1ccc3ccccc3n1)C(=O)CO2 [Compound I-232, N-hydroxy-3-oxo-4-(quinolin-2-ylmethyl)-3,4-dihydro-2H-benzo[b][1,4]oxazine-6-carboxamide] | ≤ 25
16 | O=C(NO)c1ccc2c(c1)N(CC1COc3ccccc3O1)C(=O)CO2 (racemic) [Compound I-185, (+/−)-4-((2,3-dihydrobenzo[b][1,4]dioxin-2-yl)methyl)-N-hydroxy-3-oxo-3,4-dihydro-2H-benzo[b][1,4]oxazine-6-carboxamide] | ≤ 25
17 | CN(C)C(=O)c1ccc(CN2C(=O)COc3ccc(C(=O)NO)cc32)cc1 [Compound I-360, 4-(4-(dimethylcarbamoyl)benzyl)-N-hydroxy-3-oxo-3,4-dihydro-2H-benzo[b][1,4]oxazine-6-carboxamide] | 25 to 100

Row | SMILES | IC50 [nM]
18 | CC1(C)Oc2ccc(C(=O)NO)cc2N(Cc2ccc(Cl)c(Cl)c2)C1=O [Compound I-312, 4-(3,4-dichlorobenzyl)-N-hydroxy-2,2-dimethyl-3-oxo-3,4-dihydro-2H-benzo[b][1,4]oxazine-6-carboxamide] | 25 to 100
19 | CC1(C)Oc2ccc(C(=O)NO)cc2N(Cc2nc3ccc(Cl)cc3o2)C1=O [Compound I-294, 4-((6-chlorobenzo[d]oxazol-2-yl)methyl)-N-hydroxy-2,2-dimethyl-3-oxo-3,4-dihydro-2H-benzo[b][1,4]oxazine-6-carboxamide] | ≤ 25
20 | O=C(NO)c1ccc2c(c1)N(Cc1ccc3ccccc3c1)C(=O)CO2 [Compound I-323, N-hydroxy-4-(naphthalen-2-ylmethyl)-3-oxo-3,4-dihydro-2H-benzo[b][1,4]oxazine-6-carboxamide] | ≤ 25
21 | NC(=O)c1ccc(CN2C(=O)COc3ccc(C(=O)NO)cc32)cc1 [Compound I-362, 4-(4-carbamoylbenzyl)-N-hydroxy-3-oxo-3,4-dihydro-2H-benzo[b][1,4]oxazine-6-carboxamide] | ≤ 25
22 | O=C(NO)c1ccc2c(c1)N(Cc1cnn(-c3ccccc3)n1)C(=O)CO2 [Compound I-180, N-hydroxy-3-oxo-4-((2-phenyl-2H-1,2,3-triazol-4-yl)methyl)-3,4-dihydro-2H-benzo[b][1,4]oxazine-6-carboxamide] | ≤ 25
23 | Cc1ccn2cc(CN3C(=O)COc4ccc(C(=O)NO)cc43)nc2c1 [Compound I-364, N-hydroxy-4-((7-methylimidazo[1,2-a]pyridin-2-yl)methyl)-3-oxo-3,4-dihydro-2H-benzo[b][1,4]oxazine-6-carboxamide] | 25 to 100
24 | O=C(NO)c1ccc2c(c1)N(Cc1ccc(C(F)(F)F)c(F)c1)C(=O)CO2 [Compound I-266, 4-(3-fluoro-4-(trifluoromethyl)benzyl)-N-hydroxy-3-oxo-3,4-dihydro-2H-benzo[b][1,4]oxazine-6-carboxamide] | ≤ 25
25 | O=C(NO)c1ccc2c(c1)N(Cc1ccc3cccnc3c1)C(=O)CO2 [Compound I-335, N-hydroxy-3-oxo-4-(quinolin-ylmethyl)-3,4-dihydro-2H-benzo[b][1,4]oxazine-6-carboxamide] | ≤ 25
26 | COCCOc1ccc(CN2C(=O)COc3ccc(C(=O)NO)cc32)cc1 [Compound I-196, N-hydroxy-4-(4-(2-methoxyethoxy)benzyl)-3-oxo-3,4-dihydro-2H-benzo[b][1,4]oxazine-6-carboxamide] | ≤ 25
27 | O=C(NO)c1ccc2c(c1)N(Cc1nc3cc(Cl)cnc3s1)C(=O)CO2 [Compound I-209, 4-((6-chlorothiazolo[5,4-b]pyridin-2-yl)methyl)-N-hydroxy-3-oxo-3,4-dihydro-2H-benzo[b][1,4]oxazine-6-carboxamide] | ≤ 25
28 | CC1(C)Oc2ccc(C(=O)NO)cc2N(Cc2cccc(Oc3ccccc3)c2)C1=O [Compound I-225, N-hydroxy-2,2-dimethyl-3-oxo-4-(3-phenoxybenzyl)-3,4-dihydro-2H-benzo[b][1,4]oxazine-6-carboxamide] | 25 to 100
29 | COc1cnc2sc(CN3C(=O)COc4ccc(C(=O)NO)cc43)nc2c1 [Compound I-208, N-hydroxy-4-((6-methoxythiazolo[5,4-b]pyridin-2-yl)methyl)-3-oxo-3,4-dihydro-2H-benzo[b][1,4]oxazine-6-carboxamide] | ≤ 25
30 | O=C(NO)c1ccc2c(c1)N(Cc1nc(-c3ccccc3)co1)C(=O)CO2 [Compound I-202, N-hydroxy-3-oxo-4-((4-phenyloxazol-2-yl)methyl)-3,4-dihydro-2H-benzo[b][1,4]oxazine-6-carboxamide] | ≤ 25
31 | O=C(NO)c1ccc2c(c1)N(Cc1cnn(C3CC3)c1)C(=O)CO2 [Compound I-206, 4-((1-cyclopropyl-1H-pyrazol-4-yl)methyl)-N-hydroxy-3-oxo-3,4-dihydro-2H-benzo[b][1,4]oxazine-6-carboxamide] | 25 to 100
32 | O=C(NO)c1ccc2c(c1)N(CC1CCN(c3ccccc3)CC1)C(=O)CO2 [Compound I-198, N-hydroxy-3-oxo-4-((1-phenylpiperidin-4-yl)methyl)-3,4-dihydro-2H-benzo[b][1,4]oxazine-6-carboxamide] | 25 to 100
33 | COc1ccc(CN2C(=O)COc3c(F)cc(C(=O)NO)cc32)cc1 [Compound I-163, 8-fluoro-N-hydroxy-4-(4-methoxybenzyl)-3-oxo-3,4-dihydro-2H-benzo[b][1,4]oxazine-6-carboxamide] | 25 to 100
34 | O=C(NO)c1ccc2c(c1)N(Cc1ncc(-c3ccccc3)o1)C(=O)CO2 [Compound I-191, N-hydroxy-3-oxo-4-((5-phenyloxazol-2-yl)methyl)-3,4-dihydro-2H-benzo[b][1,4]oxazine-6-carboxamide] | ≤ 25
